Experimental data: article PMC6534212, “Synthesis and biological evaluation of 3–(4-aminophenyl)-coumarin derivatives as potential anti-Alzheimer’s disease agents” (Journal of Enzyme Inhibition and Medicinal Chemistry, 2019)
“Also recorded” adds a separate entry of the source.

How the values were obtained:
BuChE from equine serum = target: T1, BuChE from equine serum (Equus caballus, UniProt P81908); assay: biochemical; format: biochemical; conditions: for IC50: BuChE from equine serum, mean ± SD (n=3); for BuChE inhibitory activity (in words): verbal summary of Table 2, comparison with donepezil
T1 construct: Butyrylcholinesterase (BuChE, from equine serum, Aladdin, Shanghai, China); purchased Aladdin, Shanghai, China; host or cells: equine serum
T1 sequence (P81908 whole entry): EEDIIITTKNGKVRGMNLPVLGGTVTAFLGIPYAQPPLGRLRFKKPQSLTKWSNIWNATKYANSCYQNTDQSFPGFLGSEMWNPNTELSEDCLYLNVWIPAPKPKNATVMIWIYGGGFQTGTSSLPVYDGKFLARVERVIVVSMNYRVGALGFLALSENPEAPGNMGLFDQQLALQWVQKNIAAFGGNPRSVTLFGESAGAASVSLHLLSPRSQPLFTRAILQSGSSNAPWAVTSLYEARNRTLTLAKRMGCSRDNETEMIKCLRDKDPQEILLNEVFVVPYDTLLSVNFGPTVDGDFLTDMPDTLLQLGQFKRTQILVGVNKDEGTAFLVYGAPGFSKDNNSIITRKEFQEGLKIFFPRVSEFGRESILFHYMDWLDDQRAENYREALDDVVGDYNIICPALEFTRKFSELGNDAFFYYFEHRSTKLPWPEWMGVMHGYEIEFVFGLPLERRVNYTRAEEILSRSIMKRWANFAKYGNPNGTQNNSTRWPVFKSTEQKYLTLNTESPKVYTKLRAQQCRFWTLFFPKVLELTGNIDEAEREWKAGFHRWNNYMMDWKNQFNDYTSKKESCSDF
Protocol: (§1) In the experiment, 0.05 mol/L phosphate buffered saline (PBS) of pH 8.0 was prepared first, and then the following solutions were prepared: 1.5 mmol/L Acetylthiocholine iodide (ATChI); 0.75 mmol/L 5, 5'-Dithiobis-(2-nitrobenzoic acid) (DTNB, Sigma Aldrich, St. Louis, MO); 0.2 U/mL Acetylcholinesterase (AChE, from […], Macklin); 0.5 U/mL Butyrylcholinesterase (BuChE, from equine serum, Aladdin, Shanghai, China); 1.5 mmol/L S-Butyrylthiocholine iodide (BTChI, Sigma Aldrich, St. Louis, MO). 4% sodium dodecyl sulphate (SDS) was prepared with secondary water. […] All solutions were stored in a refrigerator at 4 °C.
(§2) The AChE/BuChE inhibitory activity of the 3–(4-aminophenyl)-coumarin derivatives was determined by the method of Ellaman[28] with slight modifications. The experiment was divided into control group, sample blank group and sample group. Take a series of test tubes, the reagents were loaded in test tubes at the dose of Table 6. After incubation at 37 °C for 20 min, quickly add 1 mL of 4% SDS to stop the reaction. […] All experiments were run in triplicate. The absorbance was determined by UV spectrophotometer, and the inhibition rate of AChE and the IC50 value of each sample were calculated according to the formula. Inhibition rate % = {[(AC−AS)−ASB]/AC} ×100%, where AC (no sample added) is the absorbance of control group; AS is the absorbance of sample group; ASB (add sample solution but no substrate ATChI added) is the absorbance of sample blank group.
The method for determining BuChE is the same as the method for measuring AChE. The sample can be added with reference to Table 6, AChE is changed to BuChE, and the substrate ATChI is changed to substrate BTChI. The order of loading and the amount of loading are the same as Table 6. The absorbance was determined by UV spectrophotometer, and the inhibition rate of BuChE and the IC50 value of each sample were calculated according to the formula. The formula used is the same as AChE.

[1] = test system: aluminium trichloride-induced zebrafish juveniles; assay: Effects of compounds on aluminium trichloride-induced behavioural inhibition of zebrafish juveniles (Zebrobox); conditions: for Total movement distance: mean ± SE, n=8
Protocol: The most suitable modelling concentrations were chosen, and then the effect of the compounds on the behaviour of the aluminium trichloride-induced zebrafish juveniles was explored.
The 72 hpf zebrafish were placed in a petri dish, and the normal developing juveniles were selected under a microscope in a 12-well plate. […] The continuous drug solution was exposed for 3 days. […] Each well was juvenile fish developed to 72 h post-exposure (hpe) and added 0.5 mL of culture water and 8 juveniles were set in each experimental group. The well plate was placed in the dark box of the zebrafish behaviour analysis system. The fish was first adapted to 10 min at the beginning of the experiment. The trajectories of the juveniles in each group were collected using zeblab software for 10 min, recorded every 5 min, and exported by software. Then calculate the total distance of each group of zebrafish juveniles.
The zebrafish with 72 hpf after fertilisation is placed in a petri dish. Under normal conditions, the normal developing juvenile fish are selected in a 12-well plate, and 15 juveniles per hole are set. Control group (0.5% DMSO), model group (5.0 mg/L AlCl3), 5.0 mg/L AlCl3 + test compound 5 μg/mL group, 5.0 mg/L AlCl3 + test compound 10 μg/mL group, 5.0 mg/L AlCl3 + test compound 50 μg/mL group, 5.0 mg/L AlCl3 + test compound 100 μg/mL group, three duplicate wells were set at each concentration. After the administration, the zebrafish was placed in a constant temperature incubator at 28 °C to continue the culture for 3 days. Changing the liquid (aquaculture water) every 24 h and removing dead young fish.

[2] = target: T2, AChE from Electrophorus electricus (Electrophorus electricus, UniProt O42275); assay: biochemical; format: biochemical; conditions: for IC50: AChE from Electrophorus electricus, mean ± SD (n=3); for AChE inhibitory activity (in words): verbal summary of Table 2; for Selectivity AChE/BuChE (in words): verbal summary of SI
T2 construct: purchased Macklin
T2 sequence (O42275 24-633): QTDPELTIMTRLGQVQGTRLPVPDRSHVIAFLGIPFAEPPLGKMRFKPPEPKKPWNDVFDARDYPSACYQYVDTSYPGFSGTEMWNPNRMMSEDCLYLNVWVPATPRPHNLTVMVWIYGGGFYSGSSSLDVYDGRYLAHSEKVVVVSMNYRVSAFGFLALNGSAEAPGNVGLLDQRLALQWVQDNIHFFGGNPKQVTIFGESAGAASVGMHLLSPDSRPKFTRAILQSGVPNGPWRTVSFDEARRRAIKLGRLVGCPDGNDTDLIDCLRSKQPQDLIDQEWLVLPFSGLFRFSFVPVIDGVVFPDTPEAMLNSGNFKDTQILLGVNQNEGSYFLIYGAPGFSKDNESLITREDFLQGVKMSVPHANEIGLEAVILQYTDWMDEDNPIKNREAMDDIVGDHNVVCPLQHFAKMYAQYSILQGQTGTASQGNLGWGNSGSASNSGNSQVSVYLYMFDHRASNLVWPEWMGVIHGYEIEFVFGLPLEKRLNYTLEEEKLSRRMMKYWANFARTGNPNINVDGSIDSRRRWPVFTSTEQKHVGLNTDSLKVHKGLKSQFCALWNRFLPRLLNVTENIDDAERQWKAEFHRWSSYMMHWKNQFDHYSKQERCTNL
Protocol: as §1, §2

[3] = 5 mg/L compound + 5.0 mg/L AlCl3, 3 days
[4] = 10 mg/L compound + 5.0 mg/L AlCl3, 3 days
[5] = 50 mg/L compound + 5.0 mg/L AlCl3, 3 days
[6] = 100 mg/L compound + 5.0 mg/L AlCl3, 3 days

## COc1cccc2cc(-c3ccc(NC(=O)c4cccc(Cl)c4Cl)cc3)c(=O)oc12 [Compound 4r, 3-[4-(2,3-dichloro-benzoylamino)-phenyl]-8-methoxy-coumarin]
BuChE from equine serum
  IC50: 4.33 ± 0.125 µM
[1]; [3]
  Total movement distance: 178 ± 11.2 cm
[1]; [4]
  Total movement distance: 182.4 ± 4.6 cm
[1]; [5]
  Total movement distance: 196.4 ± 11.7 cm
[1]; [6]
  Total movement distance: 194.4 ± 9.4 cm
[2]
  IC50: 19.7 ± 2.45 µM
  SI: selectivity index (IC50 BuChE/IC50 AChE): 0.220

## O=C(Nc1ccc(-c2cc3ccc(O)cc3oc2=O)cc1)c1ccccc1F [Compound 4g, 3-[4-(2-fluoro-benzoylamino)-phenyl]-7-hydroxy-coumarin]
BuChE from equine serum
  IC50: 24.5 ± 0.535 µM
[2]
  IC50: > 50 µM
  SI: selectivity index (IC50 BuChE/IC50 AChE): <0.489
  AChE inhibitory activity (in words): no inhibitory activity

## COc1cccc2cc(-c3ccc(NC(=O)c4cccc5ccccc45)cc3)c(=O)oc12 [Compound 6b, 3-[4-(1-naphthoylamino)-phenyl]-8-methoxy-coumarin]
BuChE from equine serum
  IC50: > 50 µM
[2]
  IC50: > 50 µM

## COc1ccccc1C(=O)Nc1ccc(-c2cc3cccc(OC)c3oc2=O)cc1 [Compound 4q, 3-[4-(2-methoxy-benzoylamino)-phenyl]-8-methoxy-coumarin]
BuChE from equine serum
  IC50: > 50 µM
[2]
  IC50: 48.2 ± 3.13 µM
  SI: selectivity index (IC50 BuChE/IC50 AChE): >1.037

## COc1cccc2cc(-c3ccc(NC(=O)c4ccc(F)cc4)cc3)c(=O)oc12 [Compound 4k, 3-[4-(4-fluoro-benzoylamino)-phenyl]-8-methoxy-coumarin]
BuChE from equine serum
  IC50: 0.559 ± 0.017 µM
  BuChE inhibitory activity (in words): better than donepezil
BuChE from equine serum; more active than donepezil
  BuChE inhibitory activity relative to donepezil: 5 times
[1]; [3]
  Total movement distance: 194.9 ± 5.5 cm
[1]; [4]
  Total movement distance: 186.7 ± 7.7 cm
[1]; [5]
  Total movement distance: 181.8 ± 6.9 cm
[1]; [6]
  Total movement distance: 205.7 ± 9.5 cm
[2]
  IC50: 28 ± 2.56 µM
  SI: selectivity index (IC50 BuChE/IC50 AChE): 0.020
  Selectivity AChE/BuChE (in words): highly selective for BuChE

## O=C(Nc1ccc(-c2cc3ccc(O)cc3oc2=O)cc1)c1cccc(F)c1 [Compound 4a, 3-[4-(3-fluoro-benzoylamino)-phenyl]-7-hydroxy-coumarin]
BuChE from equine serum
  IC50: 3.89 ± 0.955 µM
[2]
  IC50: > 50 µM
  Selectivity AChE/BuChE (in words): highly selective for BuChE
  AChE inhibitory activity (in words): no inhibitory activity

## O=C(Nc1ccc(-c2cc3ccc(O)cc3oc2=O)cc1)c1ccc(F)cc1 [Compound 4b, 3-[4-(4-fluoro-benzoylamino)-phenyl]-7-hydroxy-coumarin]
BuChE from equine serum
  IC50: 2.44 ± 0.035 µM
  BuChE inhibitory activity (in words): better than donepezil
[2]
  IC50: > 50 µM
  SI: selectivity index (IC50 BuChE/IC50 AChE): <0.050
  Selectivity AChE/BuChE (in words): highly selective for BuChE
  AChE inhibitory activity (in words): no inhibitory activity

## Cc1cc(C)cc(C(=O)Nc2ccc(-c3cc4ccc(O)cc4oc3=O)cc2)c1 [Compound 4i, 3-[4-(3,5-dimethyl-benzoylamino)-phenyl]-7-hydroxy-coumarin]
BuChE from equine serum
  IC50: 2.26 ± 0.225 µM
  BuChE inhibitory activity (in words): better than donepezil
[2]
  IC50: > 50 µM
  SI: selectivity index (IC50 BuChE/IC50 AChE): <0.045
  Selectivity AChE/BuChE (in words): highly selective for BuChE
  AChE inhibitory activity (in words): no inhibitory activity

## O=C(Nc1ccc(-c2cc3ccc(O)cc3oc2=O)cc1)c1ccc(CCl)cc1 [Compound 4d, 3-[4-(4-chloromethyl-benzoylamino)-phenyl]-7-hydroxy-coumarin]
BuChE from equine serum
  IC50: 8.9 ± 1.18 µM
[2]
  IC50: 47.2 ± 3.57 µM
  SI: selectivity index (IC50 BuChE/IC50 AChE): 0.189

## COc1cccc2cc(-c3ccc(NC(=O)c4ccccc4F)cc3)c(=O)oc12 [Compound 4p, 3-[4-(2-fluoro-benzoylamino)-phenyl]-8-methoxy-coumarin]
BuChE from equine serum
  IC50: 16 ± 0.475 µM
[2]
  IC50: 48.9 ± 2.32 µM
  SI: selectivity index (IC50 BuChE/IC50 AChE): 0.326

## COc1cccc2cc(-c3ccc(NC(=O)c4ccc(CCl)cc4)cc3)c(=O)oc12 [Compound 4m, 3-[4-(4-chloromethyl-benzoylamino)-phenyl]-8-methoxy-coumarin]
BuChE from equine serum
  IC50: 41.2 ± 1.04 µM
[1]; [3]
  Total movement distance: 198.3 ± 10.1 cm
[1]; [4]
  Total movement distance: 210.2 ± 6.0 cm
[1]; [5]
  Total movement distance: 230.8 ± 6.2 cm
[1]; [6]
  Total movement distance: 247.1 ± 12.3 cm
[1]; at 50.0 and 100.0 μg/mL concentration
  Effect on total distance of zebrafish juvenile movement (in words): significant therapeutic effect; also recorded: significant effects compared with the model group
[1]; compared with the model group
  Effect on behavioural inhibition of zebrafish induced by aluminium trichloride (in words): certain therapeutic effects; also recorded: could alleviate the behavioural inhibition symptoms
[2]
  IC50: 0.091 ± 0.011 µM
  SI: selectivity index (IC50 BuChE/IC50 AChE): 452.637
  Selectivity AChE/BuChE (in words): highly selective for AChE
  AChE inhibitory activity (in words): moderate to excellent AChE inhibitory activity

## O=C(Nc1ccc(-c2cc3ccc(O)cc3oc2=O)cc1)c1cccc2ccccc12 [Compound 6a, 3-[4-(1-naphthoylamino)-phenyl]-7-hydroxy-coumarin]
BuChE from equine serum
  IC50: > 50 µM
[2]
  IC50: 19.1 ± 0.981 µM
  SI: selectivity index (IC50 BuChE/IC50 AChE): >2.612

## COc1cccc2cc(-c3ccc(NC(=O)c4cccc(Cl)c4)cc3)c(=O)oc12 [Compound 4n, 3-[4-(3-chloro-benzoylamino)-phenyl]-8-methoxy-coumarin]
BuChE from equine serum
  IC50: 0.951 ± 0.159 µM
  BuChE inhibitory activity (in words): better than donepezil
[2]
  IC50: > 50 µM
  SI: selectivity index (IC50 BuChE/IC50 AChE): <0.020

## O=C(Nc1ccc(-c2cc3ccc(O)c(O)c3oc2=O)cc1)c1ccc(CCl)cc1 [Compound 4s, 3-[4-(4-Chloromethyl-benzoylamino)-phenyl]-7,8-dihydroxy-coumarin]
BuChE from equine serum
  IC50: > 50 µM
[2]
  IC50: 48.2 ± 2.69 µM
  SI: selectivity index (IC50 BuChE/IC50 AChE): >1.037

## COc1cccc2cc(-c3ccc(NC(=O)c4ccco4)cc3)c(=O)oc12 [Compound 5b, 3-[4-(furan-2-formylamino)-phenyl]-8-methoxy-coumarin]
BuChE from equine serum
  IC50: 4.62 ± 0.055 µM
[2]
  IC50: 47.1 ± 1.59 µM
  SI: selectivity index (IC50 BuChE/IC50 AChE): 0.098

## Cc1ccc(C(=O)Nc2ccc(-c3cc4ccc(O)cc4oc3=O)cc2)cc1 [Compound 4c, 3-[4-(4-methyl-benzoylamino)-phenyl]-7-hydroxy-coumarin]
BuChE from equine serum
  IC50: 15.6 ± 1.82 µM
[2]
  IC50: > 50 µM
  AChE inhibitory activity (in words): no inhibitory activity

## O=C(Nc1ccc(-c2cc3ccc(O)cc3oc2=O)cc1)c1ccc(Cl)cc1 [Compound 4h, 3-[4-(4-chloro-benzoylamino)-phenyl]-7-hydroxy-coumarin]
BuChE from equine serum
  IC50: 3.88 ± 0.191 µM
[2]
  IC50: > 50 µM
  SI: selectivity index (IC50 BuChE/IC50 AChE): <0.078
  Selectivity AChE/BuChE (in words): highly selective for BuChE
  AChE inhibitory activity (in words): no inhibitory activity

## COc1cccc2cc(-c3ccc(NC(=O)c4cccc(C)c4)cc3)c(=O)oc12 [Compound 4o, 3-[4-(3-methyl-benzoylamino)-phenyl]-8-methoxy-coumarin]
BuChE from equine serum
  IC50: > 50 µM
[2]
  IC50: 8.26 ± 0.581 µM
  SI: selectivity index (IC50 BuChE/IC50 AChE): >6.054
  Selectivity AChE/BuChE (in words): highly selective for AChE
  AChE inhibitory activity (in words): moderate to excellent AChE inhibitory activity

## O=C(Nc1ccc(-c2cc3ccc(O)cc3oc2=O)cc1)c1ccc2ccccc2c1 [Compound 7a, 3-[4-(2-naphthoylamino)-phenyl]-7-hydroxy-coumarin]
BuChE from equine serum
  IC50: 2.07 ± 0.045 µM
  BuChE inhibitory activity (in words): better than donepezil
[2]
  IC50: > 50 µM

## COc1cccc2cc(-c3ccc(NC(=O)c4ccc(Cl)nc4)cc3)c(=O)oc12 [Compound 7c, 3-[4-(6-chloro-N-nicotinamide)-phenyl]-8-methoxy-coumarin]
BuChE from equine serum
  IC50: 3.38 ± 0.342 µM
[2]
  IC50: 19.2 ± 1.64 µM
  SI: selectivity index (IC50 BuChE/IC50 AChE): 0.176

## Cc1cccc(C(=O)Nc2ccc(-c3cc4ccc(O)cc4oc3=O)cc2)c1 [Compound 4e, 3-[4-(3-methyl-benzoylamino)-phenyl]-7-hydroxy-coumarin]
BuChE from equine serum
  IC50: 10.6 ± 0.132 µM
[2]
  IC50: > 50 µM
  SI: selectivity index (IC50 BuChE/IC50 AChE): <0.211
  AChE inhibitory activity (in words): no inhibitory activity
